Type in all cases: biochemical
The target of assay [1] is full-length SHP2-E76K oncogenic mutant (Homo sapiens (Human), UniProt Q06124, E76K). Nature of the assay: DiFMUP fluorescence intensity phosphatase inhibition assay, SHP2-E76K. The settings on record: DiFMUP at Km (20 μM), 10-point dose-response; read-out: SHP2-E76K IC50. The text has this:
(§1) To test the synthesized compounds for their potential to inhibit SHP2 activity, a fluorescence intensity-based assay using 6,8-difluoro-4-methylumbelliferyl phosphate (DiFMUP) as the substrate was adapted for three recombinant SHP2 constructs: 1) the SHP2 catalytic domain (SHP2cat; residues 248-527), 2) the full-length SHP2-E76K oncogenic mutant, and 3) the full-length SHP2 wild-type (SHP2-WT). The recombinant SHP2 proteins were expressed and purified. A dually phosphorylated peptide derived from the insulin receptor substrate 1 (IRS-1) served as a surrogate binding protein and was used to activate SHP2-WT. […] Michaelis-Menten experiments to determine the DiFMUP Michaelis-Menten constant (Kmn) for each SHP2 construct were performed and yielded the following values: SHP2-WT, Km=60 μM; SHP2-E76K, Km=20 μM; SHP2cat, Km=20 μM. Relative maximum rates (Vmax) of the DiFMUP reactions were as follows: SHP2-WT, Vmax=871 AFU/min; SHP2-E76K, Vmax, =2730 AFU/min; SHP2cat, Vmax=2912 AFU/min. IC50 values for each compound were determined from initial rates in 10-point dose-response assays using DiFMUP at a concentration corresponding to its Km value for the respective SHP2 construct.
(§2) SHP2 inhibitors were tested at room temperature (RT) in a 384-well plate format standard phosphatase fluorescence intensity assay using DiFMUP (Invitrogen/Thermo Fisher Scientific, Carlsbad, CA) as a substrate and a total reaction volume of 25 μL. SHP2 inhibitors or vehicle (DMSO) were spotted in triplicate into a black Greiner FLUOTRAC™ 200 384-well microplate (#781076, Greiner) for a 10-point dose-response assay using an Echo®555 Liquid Handler (Labcyte, Inc., San Jose, CA). PTP working solutions were prepared at a 0.625 nM concentration (for a final concentration of 0.5 nM) in buffer containing 50 mM Bis-Tris pH 6.0, 50 mM NaCl, 5 mM DTT, and 0.01% Tween® 20. Prior to the assay, a dually phosphorylated insulin receptor substrate 1 (IRS-1) peptide [625 nM (500 nMfinal) (30)] was added to full-length WT SHP2 working solutions and incubated for 20 min. DiFMUP working solutions at 5× final concentration were prepared in 50 mM Bis-Tris pH 6.0, 50 mMNaCl, and 0.01% Tween 20. 20 μL of PTP working solution was dispensed into the microplate and incubated with inhibitor for 20 min at RT. […] The reaction was initiated by addition of 5 μL DiFMUP working solutions. Fluorescence intensity was measured in kinetic mode (every minute for 7 or 10 min) using a Tecan Spark® Multimode Microplate Reader (Tecan, Groedig, Austria) with an excitation wavelength of 360 nm and an emission wavelength of 460 nm. The initial rates were determined from the linear progression curves of the PTP reaction. The nonenzymatic hydrolysis of the substrate was corrected by using a control without addition of enzyme. IC50 values were calculated from the corrected initial rates by nonlinear regression using the program GraphPad Prism (GraphPad Software, Inc., San Diego, CA) Version 8. Dose-response inhibition assays of SHP2cat using the substrate OMFP were performed similarly as described above for DiFMUP. OMFP was used at a concentration corresponding to its Km value for SHP2cat (50 μM final). Fluorescence intensity was measured in kinetic mode (every minute for 10 min) using a Tecan Spark Multimode Microplate Reader with an excitation wavelength of 485 nm and an emission wavelength of 535 nm. Initial rates were determined and IC50 vales calculated as described above.

Assay [2] has as its target full-length SHP2 wild-type (SHP2-WT) (Homo sapiens (Human), UniProt Q06124). The assay can be described thus: DiFMUP fluorescence intensity phosphatase inhibition assay, SHP2-WT activated with IRS-1 peptide. The settings on record: DiFMUP at Km (60 μM), IRS-1 peptide activated.
Description: as §1, §2

For assay [3], the target named is SHP2 catalytic domain (SHP2cat; residues 248-527) (Homo sapiens (Human), UniProt Q06124). The assay can be described thus: DiFMUP fluorescence intensity phosphatase inhibition assay, SHP2cat. Particulars: DiFMUP at Km (20 μM); read-out: SHP2cat IC50.
Description: as §1, §2

Chain of full-length SHP2-E76K oncogenic mutant (Q06124 whole entry E76K, the tested form may be a part): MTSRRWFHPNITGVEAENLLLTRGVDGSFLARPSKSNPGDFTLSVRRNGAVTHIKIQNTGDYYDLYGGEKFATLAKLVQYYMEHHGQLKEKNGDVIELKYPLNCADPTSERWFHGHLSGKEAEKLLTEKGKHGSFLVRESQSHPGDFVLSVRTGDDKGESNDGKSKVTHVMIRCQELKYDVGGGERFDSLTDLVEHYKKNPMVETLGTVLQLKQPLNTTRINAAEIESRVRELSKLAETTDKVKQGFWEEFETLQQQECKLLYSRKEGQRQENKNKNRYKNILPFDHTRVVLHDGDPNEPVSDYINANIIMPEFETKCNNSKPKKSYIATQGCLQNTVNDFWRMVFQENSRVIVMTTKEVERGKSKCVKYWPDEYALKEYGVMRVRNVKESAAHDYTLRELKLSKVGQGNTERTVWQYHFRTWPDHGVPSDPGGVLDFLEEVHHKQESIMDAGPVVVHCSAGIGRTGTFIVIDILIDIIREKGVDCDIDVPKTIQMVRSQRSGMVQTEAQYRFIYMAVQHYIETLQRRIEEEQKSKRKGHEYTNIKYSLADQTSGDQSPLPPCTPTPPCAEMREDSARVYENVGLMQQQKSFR
Chain of full-length SHP2 wild-type (SHP2-WT) (Q06124 whole entry, other chains not shown): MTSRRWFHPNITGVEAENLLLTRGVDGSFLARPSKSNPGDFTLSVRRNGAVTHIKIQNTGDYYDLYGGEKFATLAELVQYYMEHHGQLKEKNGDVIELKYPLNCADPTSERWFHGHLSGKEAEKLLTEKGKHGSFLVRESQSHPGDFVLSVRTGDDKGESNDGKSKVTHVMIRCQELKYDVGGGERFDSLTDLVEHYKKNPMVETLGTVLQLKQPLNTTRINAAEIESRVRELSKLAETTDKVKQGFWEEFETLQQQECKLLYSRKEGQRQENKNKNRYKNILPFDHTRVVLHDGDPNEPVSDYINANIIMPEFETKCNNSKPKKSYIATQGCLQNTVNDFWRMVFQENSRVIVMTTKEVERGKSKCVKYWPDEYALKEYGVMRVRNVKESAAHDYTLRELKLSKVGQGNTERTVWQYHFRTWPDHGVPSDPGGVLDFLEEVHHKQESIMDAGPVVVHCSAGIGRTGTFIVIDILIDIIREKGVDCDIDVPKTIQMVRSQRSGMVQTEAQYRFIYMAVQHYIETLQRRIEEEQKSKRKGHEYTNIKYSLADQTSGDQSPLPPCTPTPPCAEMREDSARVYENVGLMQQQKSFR
Chain of SHP2 catalytic domain (SHP2cat; residues 248-527) (Q06124 248-527): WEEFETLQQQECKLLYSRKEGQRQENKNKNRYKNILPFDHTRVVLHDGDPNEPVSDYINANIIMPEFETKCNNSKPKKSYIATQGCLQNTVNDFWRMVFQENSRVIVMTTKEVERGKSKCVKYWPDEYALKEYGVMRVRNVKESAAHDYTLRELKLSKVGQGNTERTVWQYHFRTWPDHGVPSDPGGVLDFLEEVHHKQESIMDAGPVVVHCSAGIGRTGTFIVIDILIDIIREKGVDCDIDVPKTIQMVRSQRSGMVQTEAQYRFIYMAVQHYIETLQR

With `O=C1/C(=C/c2ccc(-c3ccc(O)c(-c4nn[nH]n4)c3)o2)Sc2ccccc21` [#04, (Z)-2-((5-(4-Hydroxy-3-(2H-tetrazol-5-yl)phenyl)furan-2-yl)methylene)benzo[b]thiophen-3(2H)-one], the IC50 in assay [1], in assay [2] and in assay [3] was 1 to 20 µM each time.

As to `O=C1CCC/C1=C\c1ccc(-c2ccc(O)c(C(=O)O)c2)o1` [#06, 2-Hydroxy-5-(5-((2-oxocyclopentylidene)methyl)furan-2-yl)benzoic acid], the IC50 – broadly, the point on the concentration scale where inhibition reaches its midpoint – in assay [1] was 1 to 20 µM; in assay [2], 20 to 100 µM; in assay [3], 1 to 20 µM.

For `O=C(O)c1cc(-c2ccc(/C=C3\Oc4ccccc4C3=O)o2)ccc1O` [#07, (Z)-2-Hydroxy-5-(5-((3-oxobenzofuran-2(3H)-ylidene)methyl)furan-2-yl)benzoic acid], the IC50 in assay [1], in assay [2] and in assay [3] was 1 to 20 µM throughout.

With `Nc1cccc(NC(=O)c2cc(-c3ccc(/C=C4\Sc5ccccc5C4=O)o3)ccc2O)c1` [#08, (Z)—N-(3-aminophenyl)-2-hydroxy-5-(5-((3-oxobenzo[b]thiophen-2(3H)-ylidene)methyl)furan-2-yl)benzamide], the IC50 in assay [1], in assay [2] and in assay [3] was 1 to 20 µM in each case.

As to `O=C(O)c1cc(-c2ccc(/C=C3\Cc4ccccc4C3=O)o2)ccc1O` [#09, 2-Hydroxy-5-(5-((1-oxo-1,3-dihydro-2H-inden-2-ylidene)methyl)furan-2-yl)benzoic acid], the IC50 in assay [1], in assay [2] and in assay [3] was 1 to 20 µM throughout.

In the case of `O=C(NNc1ccccc1)c1cc(-c2ccc(/C=C3\Sc4ccccc4C3=O)o2)ccc1O` [#11, (Z)-2-Hydroxy-5-(5-((3-oxobenzo[b]thiophen-2(3H)-ylidene)methyl)furan-2-yl)-N′-phenylbenzohydrazide], the IC50 in assay [1], in assay [2] and in assay [3] was 1 to 20 µM in each case.

Consider `O=C(O)c1cccc(-c2cccc(/C=C3\Sc4ccccc4C3=O)c2)c1` [#30], for which the IC50 in assay [1] and in assay [2] was 1 to 20 µM in each case.

As to `O=C(O)c1cccc(-c2ccc(/C=C3\Sc4ccccc4C3=O)o2)c1` [#31], the IC50 in assay [1] and in assay [2] was 1 to 20 µM each time.

Consider `O=C(O)c1cc(-c2ccc(/C=C3\Sc4ccccc4C3=O)o2)ccc1F` [#32], for which the IC50 in assay [1] fell in the range of 1 to 20 µM; in assay [2] it was 20 to 100 µM.

As for `COc1cccc(NC(=O)c2cccc(-c3ccc(/C=C4\Sc5ccccc5C4=O)o3)c2)c1` [#33], the IC50 in assay [1] was in the range of 1 to 20 µM; in assay [2], 20 to 100 µM.

In the case of `O=C(O)c1cccc(-c2ccc(/C=C3\Cc4ccccc4C3=O)o2)c1` [#34], the IC50 is 1 to 20 µM in assay [1] and 20 to 100 µM in assay [2].

For `COc1ccc(-c2ccc(/C=C3\Sc4ccccc4C3=O)o2)cc1C(=O)O` [#35], the values for the IC50 in assay [1] and in assay [2] were 1 to 20 µM and 20 to 100 µM, respectively.

For the compound `O=C1CCC/C1=C\c1ccc(-c2cccc(C(=O)O)c2)o1` [#36], the IC50 in assay [1] and in assay [2] was 20 to 100 µM in each case.

On to `O=C(/C=C/c1ccc(-c2ccc(O)c(C(=O)O)c2)o1)c1ccccc1` [#37], for which the IC50 in assay [1] and in assay [2] was 20 to 100 µM each time.

On to `O=C(Nc1ccc2ccccc2n1)c1cccc(-c2ccc(/C=C3\Sc4ccccc4C3=O)o2)c1` [#38], for which the values for the IC50 in assay [1] and in assay [2] were 20 to 100 µM and at least 100 µM, respectively.

Regarding `O=C1NC(=O)/C(=C/c2ccc(-c3cccc(C(=O)Nc4ccccc4)c3)o2)S1` [#39], the IC50 in assay [1] and in assay [2] was 20 to 100 µM throughout.

For `O=C1/C(=C/c2ccc(-c3ccc(O)c(C(=O)O)c3)o2)CC/C1=C\c1ccc(-c2ccc(O)c(C(=O)O)c2)o1` [#44], the IC50 in assay [1] is at most 1 µM; in assay [2], 1 to 20 µM.

Turning to `O=C1/C(=C/c2ccc(O)c(C(=O)O)c2)CC/C1=C\c1ccc(O)c(C(=O)O)c1` [#47], the IC50 in assay [1] and in assay [2] was 1 to 20 µM throughout.

For `O=C(/C=C/c1ccc(Br)o1)c1cccc(C(=O)/C=C/c2ccc(Br)o2)c1` [#48], the IC50 in assay [1] and in assay [2] was 20 to 100 µM in each case.

For the origin of these results see patent publication US20250026741A1, “INHIBITORS OF THE ONCOGENIC SHP2 PHOSPHATASE AND USES THEREOF” (Sanford Burnham Prebys Medical Discovery Institute, priority 2021, published 2025).
